Data: ChEMBL document CHEMBL1147221, “Illudin S, the sole antiviral compound in mature fruiting bodies of Omphalotus illudens” (J Nat Prod, 2003)
Active and inactive are the calls of the source. The calls are words filed in the database; no cut-off is given here.

Experiments:
[1] = Cytotoxicity against african green monkey CV1 cells at 0.15 ug/disk by neutral red staining; type: cell-based; settings: chlorocebus aethiops, cv-1
[2] = Cytotoxicity against african green monkey CV1 cells at 0.1 ug/disk by neutral red staining; type: cell-based; settings: chlorocebus aethiops, cv-1
[3] = Cytotoxicity against african green monkey CV1 cells at 0.025 ug/disk by neutral red staining; type: cell-based; settings: chlorocebus aethiops, cv-1
[4] = tested on: Human alphaherpesvirus 1; assay: Antiviral activity against HSV1 infected in african green monkey CV1 cells at 5 ug/disk by filter disk method; type: functional, organism-based; settings: CV-1
[5] = Cytotoxicity against african green monkey CV1 cells at 0.010 ug/disk by neutral red staining; type: cell-based; settings: chlorocebus aethiops, cv-1
[6] = Cytotoxicity against african green monkey CV1 cells at 0.5 ug/disk by neutral red staining; type: cell-based; settings: chlorocebus aethiops, cv-1
[7] = Cytotoxicity against african green monkey CV1 cells at 5 ug/disk by neutral red staining; type: cell-based; settings: chlorocebus aethiops, cv-1
[8] = Cytotoxicity against african green monkey CV1 cells at 0.005 ug/disk by neutral red staining; type: cell-based; settings: chlorocebus aethiops, cv-1
[9] = Cytotoxicity against african green monkey CV1 cells at 1 ug/disk by neutral red staining; type: cell-based; settings: chlorocebus aethiops, cv-1
[10] = Cytotoxicity against african green monkey CV1 cells at 2.5 ug/disk by neutral red staining; type: cell-based; settings: chlorocebus aethiops, cv-1
[11] = tested on: Human alphaherpesvirus 1; assay: Antiviral activity against HSV1 infected in african green monkey CV1 cells at 0.15 ug/disk by filter disk method; type: functional, organism-based; settings: CV-1
[12] = Cytotoxicity against african green monkey CV1 cells at 10 ug/disk by neutral red staining; type: cell-based; settings: chlorocebus aethiops, cv-1
[13] = tested on: Human alphaherpesvirus 1; assay: Antiviral activity against HSV1 infected in african green monkey CV1 cells at 10 ug/disk by filter disk method; type: functional, organism-based; settings: CV-1
[14] = tested on: Human alphaherpesvirus 1; assay: Antiviral activity against HSV1 infected in african green monkey CV1 cells at 0.1 ug/disk by filter disk method; type: functional, organism-based; settings: CV-1
[15] = tested on: Human alphaherpesvirus 1; assay: Antiviral activity against HSV1 infected in african green monkey CV1 cells at 0.25 ug/disk by filter disk method; type: functional, organism-based; settings: CV-1
[16] = tested on: Human alphaherpesvirus 1; assay: Antiviral activity against HSV1 infected in african green monkey CV1 cells at 0.005 ug/disk by filter disk method; type: functional, organism-based; settings: CV-1
[17] = tested on: Human alphaherpesvirus 1; assay: Antiviral activity against HSV1 infected in african green monkey CV1 cells at 0.05 ug/disk by filter disk method; type: functional, organism-based; settings: CV-1
[18] = Cytotoxicity against african green monkey CV1 cells at 0.25 ug/disk by neutral red staining; type: cell-based; settings: chlorocebus aethiops, cv-1
[19] = tested on: Human alphaherpesvirus 1; assay: Antiviral activity against HSV1 infected in african green monkey CV1 cells at 0.5 ug/disk by filter disk method; type: functional, organism-based; settings: CV-1
[20] = tested on: Human alphaherpesvirus 1; assay: Antiviral activity against HSV1 infected in african green monkey CV1 cells at 0.010 ug/disk by filter disk method; type: functional, organism-based; settings: CV-1
[21] = Cytotoxicity against african green monkey CV1 cells at 0.05 ug/disk by neutral red staining; type: cell-based; settings: chlorocebus aethiops, cv-1
[22] = tested on: Human alphaherpesvirus 1; assay: Antiviral activity against HSV1 infected in african green monkey CV1 cells at 1 ug/disk by filter disk method; type: functional, organism-based; settings: CV-1
[23] = tested on: Human alphaherpesvirus 1; assay: Antiviral activity against HSV1 infected in african green monkey CV1 cells at 2.5 ug/disk by filter disk method; type: functional, organism-based; settings: CV-1
[24] = Cytotoxicity against african green monkey CV1 cells at 0.015 ug/disk by neutral red staining; type: cell-based; settings: chlorocebus aethiops, cv-1

CC1=C2C(=C[C@@](C)(CO)[C@@H]2O)C(=O)[C@](C)(O)C12CC2 [ILLUDIN]
Activity [1]: Non-toxic | Activity [2]: Non-toxic | Activity [3]: Non-toxic | Activity [4]: inactive | Activity [5]: Non-toxic | Activity [6]: Toxic | Activity [7]: Toxic | Activity [8]: Non-toxic | Activity [9]: Toxic | Activity [10]: Toxic | Activity [11]: Active | Activity [12]: Toxic | Activity [13]: inactive | Activity [14]: Active | Activity [15]: inactive | Activity [16]: inactive | Activity [17]: Active | Activity [18]: Toxic | Activity [19]: inactive | Activity [20]: inactive | Activity [21]: Non-toxic | Activity [22]: inactive | Activity [23]: inactive | Activity [24]: Non-toxic
